According to patent US10676791B2, “Methods for predicting response to DNA repair pathway inhibitors in diffuse large B-cell lymphoma” (INSERM (INSTITUT NATIONAL DE LA SANTÉ ET DE LA RECHERCHE …, priority 2014, dated 2020):
Where two headings read alike, the source gives them in different places.

Experiments:
Format in all cases: cell-based
OCILY7 = assay: DLBCL cell line growth inhibition (Cell Titer Glo Luminescent Assay), OCILY7; details: OCILY7 cell line (high HRR score)
Experimental: (§1) 6 DLBCL cell lines were treated by increasing doses of PARP inhibitor (PJ34 hydrochloride). DLBCL cell lines growth was quantified with a Cell Titer Glo Luminescent Assay (Promega, Madison, Wis., USA) and the 50% inhibitory concentration (IC50) was determined using GraphPad Prism software (http://www.graphpad.com/scientific-software/prism/) (FIG. 7A).

OCILY3 = assay: DLBCL cell line growth inhibition (Cell Titer Glo Luminescent Assay), OCILY3; details: read-out: PJ34 IC50
Experimental: as §1

DOHH2 = assay: DLBCL cell line growth inhibition (Cell Titer Glo Luminescent Assay), DOHH2; details: DOHH cell line (high HRR score)
Experimental: as §1

HT = assay: DLBCL cell line growth inhibition (Cell Titer Glo Luminescent Assay), HT; details: read-out: PJ34 IC50
Experimental: as §1

U2932 = assay: DLBCL cell line growth inhibition (Cell Titer Glo Luminescent Assay), U2932; details: read-out: PJ34 IC50
Experimental: as §1

OCILY1 = assay: DLBCL cell line growth inhibition (Cell Titer Glo Luminescent Assay), OCILY1; details: read-out: PJ34 IC50
Experimental: as §1

DLBCL cell lines = DLBCL cell lines growth inhibition (Cell Titer Glo Luminescent Assay), panel of 6 cell lines
Experimental: as §1

CN(C)CC(=O)Nc1ccc2[nH]c(=O)c3ccccc3c2c1.Cl [PJ34, PJ34 hydrochloride] gave an IC50 (OCILY7) of 14 µM, an IC50 (OCILY3) of 7.26 µM and an IC50 (DOHH2) of 15.2 µM. The IC50 (HT) was 8.08 µM, the IC50 (U2932) was 7.2 µM and the IC50 (OCILY1) was 7.57 µM. The “sensitivity to PARPi” value (DLBCL cell lines; DLBCL cell lines with a high BER score, excluding the cell lines with a high HRR score) was “sensitive”, the IC50 (DLBCL cell lines; DLBCL cell lines with a lower HRR score, read-out: median IC50) was 7.41 µM and the IC50 (DLBCL cell lines; median over 6 DLBCL cell lines) was 7.82 µM. The “fold higher resistance to PARPi” value (DLBCL cell lines; two DLBCL cell lines with high HRR score compared to cell lines with a lower HRR score) was 2 fold.
